Data published in patent US20040220164A1, “Triaza compound immunoregulatory agents” (priority 2001, published 2004).
Converted amounts (≈) assume the structure as drawn. Like-named read-outs stand apart in the source and are kept apart here.

What was measured:
[1] = target: T1, CD4 (Homo sapiens, UniProt P01730); assay: CD4 down-modulation, flow cytometry with FITC-conjugated anti-CD4 (SK3) mAb, SupT1 cells; format: cell-based; parameters: To study the effect of the CADA derivatives on surface CD4 antigen expression, MT-4 and SupT1 cells were incubated; endogenous in cells; host or cells: MT-4, SupT1, PBMC; conditions: day 4, read-out: IC50 CD4 (50% inhibition of extracellular CD4 expression) (converted)
Protocol: (§1) Flow Cytometric Analyses. To study the effect of the CADA derivatives on surface CD4 antigen expression, MT-4 and SupT1 cells were incubated with a serial 5-fold dilution of the compounds (50, 10, 2, 0.4 and 0.08 μg/ml) or medium at 37° C. Cell surface CD4 antigen expression was analyzed at day 3 (MT-4) or day 4 (SupT1). Briefly, after washing with phosphate-buffered saline (PBS) containing 2% fetal calf serum (FCS), cells were incubated with FITC-conjugated anti-CD4 (SK3) mAb for 30 min at 4° C. As a negative control for a specific background staining, cells were stained in parallel with Simultest Control γ1/γ^2a (Becton Dickinson). Then the cells were washed, fixed with 1% formaldehyde and analyzed by flow cytometry in a FACScalibur (Becton Dickinson, San Jose, Calif., USA). Data were acquired and analyzed with CellQuest software (Becton Dickinson). For the calculation of the CD4 receptor expression, the mean fluorescence intensity (MFI) of each sample was expressed as percentage of the MFI of control cells (after subtracting the MFI of the isotype control). Finally, the IC50 value of the compounds (i.e., the concentration of the compound required for 50% inhibition of extracellular CD4 expression) was calculated.

[2] = test system: HIV-1 strain NL4.3; assay: Anti-HIV-1 assay in MT-4 cells (p24 Ag ELISA, Example 3); format: cell-based
Protocol: Antiviral Assays. For HIV-1, MT-4 cells were infected with the HIV-1 strain NL4.3. Briefly, five-fold dilutions of the compounds (in 100 μl) were added to 96-well flat bottom plates (Iwaki, Japan). Then, to each well, 7.5×10^4 MT-4 cells were added in 50 μl medium, followed by 50 μl of diluted HIV-1 stock (strain NL4.3). Cytopathic effect (CPE) induced by the virus was checked regularly microscopically. When strong CPE was observed (after 3 to 5 days of incubation) in untreated HIV-1 infected cells, the supernatant was collected, stored at −20° C. and analyzed for HIV-1 core antigen by p24 Ag ELISA (NEN™, PerkinElmer Life Sciences, Boston, Mass.). Finally, the IC50 value of the compounds (i.e., the concentration of the compound required for 50% reduction of HIV infection as measured by viral p24 antigen level in the supernatant of infected MT-4 cells) was calculated.

[3] = Cytotoxicity assay (trypan blue exclusion, propidium iodide); format: cell-based, human; conditions: human
Protocol: Cytotoxicity Assay. Cellular toxicity of the compounds was measured by trypan blue exclusion and also by Propidium Iodide by flow cytometry after 3 or 4 days of incubation, in parallel with the CD4 antigen expression. The CC50 value of each CADA analog is the concentration (in μg/ml) required to reduce the viability of the cells by 50%.

[4] = target: T1, CD4; assay: CD4 down-modulation, flow cytometry with FITC-conjugated anti-CD4 (SK3) mAb, MT-4 cells; format: cell-based; parameters: To study the effect of the CADA derivatives on surface CD4 antigen expression, MT-4 and SupT1 cells were incubated; endogenous in cells; host or cells: MT-4, SupT1, PBMC; conditions: for IC50: MT-4 cells, day 3, read-out: IC50 CD4 (50% inhibition of extracellular CD4 expression) (converted); for CD4 down-modulating activity compared with CADA or parent analog (in words): structure-activity discussion of Table 5 (MT-4 and SupT1 cells); for CD4 down-modulating activity, fold less active than CADA: compared to CADA, MT-4 cells (stated for some compounds)
Protocol: as §1, with “Cell surface CD4 antigen expression was analyzed at day 3 (MT-4) or day 4 (SupT1).” left out

[5] = test system: HHV-7 (KHR strain); assay: Anti-HHV-7 assay in SupT1 cells (antigen expression, flow cytometry, Example 3); format: cell-based; conditions: SUP-T1; SupT1 cells; read-out: IC50 HHV-7 (50% reduction of HHV-7 antigen expression)
Protocol: For HHV-7, five-fold dilutions of the compounds were added in 500 μl culture medium in 24-well flat bottom plates (Iwaki, Japan), whereupon 2×10^5 SupT1 cells were added in 400 μl culture medium. After 30 min incubation at room temperature, 100 μl of HHV-7 stock was added to each well. HHV-7-infected and mock-infected SupT1 cells were cultured in a final volume of 1 ml medium in the absence of the compounds. On day 4, half of the medium and the cells were replaced and fresh medium without new compound was added. This procedure was repeated every 2 or 3 days. The CPE was checked regularly microscopically. When CPE was observed, the HHV-7 antigen expression was monitored by flow cytometry, as described previously (Zhang, Y. et al. (1999) “Selective activity of various antiviral compounds against HHV-7 infection Antiviral Res. 43, 23-35.)

[6] = target: T1, CD4; assay: Cell surface CD4 expression by flow cytometry (anti-CD4 mAb Leu3a-PE); format: cell-based; parameters: To study the effect of the CADA derivatives on surface CD4 antigen expression, MT-4 and SupT1 cells were incubated; endogenous in cells; host or cells: MT-4, SupT1, PBMC; conditions: staurosporine together with CADA
Protocol: FIGS. 2A-2C. Surface CD4 expression in MT-4 cell line, SupT1 cell line and PBMCs after incubation with CADA hydrochloride (3.2 or 16 μM) for 1 and 4 days. (A) Cell surface CD4 expression of control MT-4 cells and MT-4 cells treated with CADA (3.2 μM) for 1 day or 4 days. (B) Cell surface CD4 expression of control SupT1 cells and SupT1 cells treated with CADA (3.2 μM) for 1 day or 4 days. (C) Cell surface CD4 expression of control PBMCs and PBMCs treated with CADA (16 μM) for 1 day or 4 days. The cells were stained with anti-CD4 mAb (Leu3a-PE). Percentages of fluorescent cells and MFI (mean fluorescence intensity) are indicated in each histogram.
FIG. 4. Comparison of the effects on CD4 modulation by ATA (24 μM), CADA hydrochloride (16 μM) and PMA (8 nM) in SupT1 cells after incubation with the compounds analyzed after 20 minutes, 4 hours, 1 day and 4 days.
Cells were incubated with CADA hydrochloride and the CD4 expression on the cell surface was analyzed. […] In peripheral blood mononuclear cells (PBMCs), the percentage of CD4 expression decreased to 0.2% after incubation with CADA (16 μM) for 4 days (FIG. 2).
Expression of various other surface antigens was also examined in MT-4 cells, SupT1 cells and PBMCs after incubation with CADA (16 μM) or CADA-free medium at 37° C. for 4 days. After washing with phosphate-buffered saline (PBS) containing 2% FCS(fetal calf serum), the cells were incubated with mAb (as indicated in Table 1) for 20 min at 4° C. Then the cells were washed, fixed with 1% formaldehyde and analyzed by flow cytometry. All mAbs were purchased from Becton-Dickinson (Erembodegem, Belgium).
CADA was compared with ATA and PMA with regard to their down-modulating effects. […] At day 4, the CD4 expression in SupT1 cells treated with CADA reduced to 1.2%.

[7] = Human immunodeficiency virus 1, MT4, MT-4 cells, read-out: IC50 HIV-1 (NL4.3), p24 Ag ELISA
[8] = MT-4 cells, read-out: CC50 (50% cytotoxic concentration)
[9] = SupT1 cells, read-out: CC50 (50% cytotoxic concentration)
[10] = Human immunodeficiency virus 1, MT4 cells, Table 6, unit inferred, read-out: IC50(HIV-1)
[11] = MT-4 cells, MT4 cells, Table 6, unit inferred, read-out: CC50
[12] = SupT1 cells, Table 6, unit inferred, read-out: CC50

IC50 [1]	IC50 [2, 7]	IC50 [4]	CD4 down-modulating activity compared with CADA or parent analog (in words) [4]	IC50 [5]	CD4 down-modulating activity, fold less active than CADA [4]	CD4 down-regulating activity, fold less active than QJ036 ([4]; compared to QJ036)	IC50 [2, 10]	Compound	CC50 [3, 8]	CC50 [3, 9]	CC50 [3, 11]	CC50 [3, 12]	effect of PKC blocker on the down-modulation of CD4 with CADA [6]
> 77.4 µM	> 10 µg/mL	> 15.5 µM	negative effect	> 50 µg/mL				C=C1CN(S(=O)(=O)c2ccc(C)cc2)CCCN(S(=O)(=O)c2ccc(C)cc2)CCCN(S(=O)(=O)c2ccc(C)cc2)C1 [AS112]	27.8 µg/mL (≈ 43 µM)	> 50 µg/mL			
2.41 µM	1.15 µg/mL (≈ 1.86 µM)	1.81 µM		0.78 µg/mL (≈ 1.26 µM)	3 fold			Cc1ccc(S(=O)(=O)N2CCCN(Cc3ccccc3)CCCN(S(=O)(=O)c3ccc(C)cc3)CC(CCl)C2)cc1 [AS117]	30.7 µg/mL (≈ 49.7 µM)	> 50 µg/mL			
2.49 µM	1.4 µg/mL (≈ 1.97 µM)	1.98 µM		0.88 µg/mL (≈ 1.24 µM)	4 fold			C=C1CN(S(=O)(=O)c2ccc(Br)cc2)CCCN(Cc2ccccc2)CCCN(S(=O)(=O)c2ccc(Br)cc2)C1 [AS-PB127]	35.7 µg/mL (≈ 50.2 µM)	> 50 µg/mL			
17.1 µM	8.05 µg/mL (≈ 14.3 µM)	11.5 µM		0.68 µg/mL (≈ 1.21 µM)				C=C1CN(S(=O)(=O)c2ccc(C)cc2)CCCN(C(=O)OCC)CCCN(S(=O)(=O)c2ccc(C)cc2)C1 [Compound 95-213]	> 50 µg/mL	> 50 µg/mL			
9.73 µM	4.82 µg/mL (≈ 8.8 µM)	8.78 µM		0.7 µg/mL (≈ 1.28 µM)		4 fold		C=C1CN(S(=O)(=O)c2ccc(C)cc2)CCCN(CC(C)C)CCCN(S(=O)(=O)c2ccc(C)cc2)C1 [Compound 98-035]	> 50 µg/mL	> 50 µg/mL			
> 85.8 µM	> 50 µg/mL	> 85.8 µM	complete loss of activity	> 50 µg/mL				C=C1CN(S(=O)(=O)c2ccc(C)cc2)CCCN(Cc2ccccn2)CCCN(S(=O)(=O)c2ccc(C)cc2)C1 [Compound 98-037]	> 50 µg/mL	> 50 µg/mL			
> 75.3 µM	> 10 µg/mL	2.86 µM		1.09 µg/mL (≈ 1.64 µM)				Cc1ccc(S(=O)(=O)N2CCCN(S(=O)(=O)c3ccc(C)cc3)CC(C)(O)CN(S(=O)(=O)c3ccc(C)cc3)CCC2)cc1 [HJC241]	32 µg/mL (≈ 48.2 µM)	> 50 µg/mL			
5.28 µM	3.88 µg/mL (≈ 6.47 µM)	3.32 µM		1.94 µg/mL (≈ 3.23 µM)	6 fold			Cc1ccc(S(=O)(=O)N2CCCN(Cc3ccccc3)CCCN(S(=O)(=O)c3ccc(C)cc3)CC(CO)C2)cc1 [HJC321]	26.1 µg/mL (≈ 43.5 µM)	> 50 µg/mL			
							6.7 µg/mL (≈ 10.1 µM)	C=C1CN(S(=O)(=O)c2ccc(C)cc2)CCCN(Cc2ccccc2)CCCN(S(=O)(=O)c2cccc3c(N(C)C)cccc23)C1 [KKD015, 9-Benzyl-3-methylene-1-(5-dimethylamino-1-naphthalenesulfonyl)-5-p-toluenesulfonyl-1,5,9-triazacyclododecane]			> 100 µg/mL	> 100 µg/mL	
							1.15 µg/mL (≈ 1.72 µM)	C=C1CN(S(=O)(=O)c2ccc(C)cc2)CCCN(CC2CCCCC2)CCCN(S(=O)(=O)c2cccc3c(N(C)C)cccc23)C1 [KKD016, 9-methylcyclohexane-3-methylene-1-(5-dimethylamino-1-naphthalenesulfonyl)-5-p-toluenesulfonyl-1,5,9-triazacyclododecane]			61.2 µg/mL (≈ 91.8 µM)	27.4 µg/mL (≈ 41.1 µM)	
> 85.6 µM	> 10 µg/mL	> 17.1 µM	significantly decreased	4.43 µg/mL (≈ 7.59 µM)				Cc1ccc(S(=O)(=O)N2CCCN(Cc3ccccc3)CCCN(S(=O)(=O)c3ccc(C)cc3)CC(=O)C2)cc1 [MFS010]	29.3 µg/mL (≈ 50.2 µM)	> 50 µg/mL			
								CN[C@@H]1C[C@H]2O[C@@](C)([C@@H]1OC)n1c3ccccc3c3c4c(c5c6ccccc6n2c5c31)C(=O)NC4 [staurosporine, reference compound]					did not show any effect
